# Reference: patent publication US6677473B1, “Plasminogen activator inhibitor antagonists” (Corvas International INC, priority 1999, dated 2004)
# Target: T1, Human recombinant PAI-1 (Homo sapiens, UniProt P05121)
# T1 construct: made in house; host or cells: E. coli
# Assay: Chromogenic assay for plasminogen activator inhibitor type-1 (PAI-1) antagonism (tPA / glu-plasminogen / Spectrozyme PL, OD405)
# Type: biochemical
# Details: determined by comparison with control reactions; assay variant (#1-#4) not given; read-out: IC50 for PAI antagonist activity
# Protocol: PAI-1 antagonist assays were performed in a buffer containing Tris, 0.05 mol/L, pH 7.4, 100 mmol/L NaCl, 1 mmol/L EDTA, and 0.01% Tween 80. Human recombinant PAI-1 purified from E coli. and human recombinant tPA were diluted into this standard assay buffer at concentrations of approximately 500-600 ng/mL and 100 ng/mL, respectively. PAI-1 antagonists were dissolved first in DMSO at a concentration of approximately 5 mg/mL, and these solutions were then diluted into the standard reaction buffer to achieve a final compound concentration of 1 mg/mL. Native, purified human glu-plasminogen was purchased from Boehringer Mannheim and was supplied as a lyophilized powder, which was first reconstituted in sterile water to a concentration of 55 μmol/L and then diluted to a concentration of 0.825 μmol/L in standard assay buffer. The chromogenic substrate Spectrozyme PL (H—D-Norleucyl-hexahydrotyrosyl-lysine-p-nitroanilide, American Diagnostica) was prepared as a stock solution with a concentration of 2.5 mmol/L in sterile water. Human fibrin monomer (DESAFIB) was purchased from American Diagnostica and was supplied as a lyophilized powder, which was reconstituted in standard assay buffer at a concentration of 100 μg/mL.
# The chromogenic assay utilized the reagents described above. Fresh reagent solutions were prepared prior to each assay. Assays were performed in individual wells of standard 96 well mocrotiter assay plates. Standard assays were prepared as follows:
# The following reagents were combined:
# The plate was agitated or the individual 25 μL mixtures were pipetted up and down once or twice to assure proper mixing of reagents. The resulting mixture was incubated 15 minutes at room temperature (approximately 21° C.).
# The following was added to each reaction:
# The microtiter assay plate was then placed into a Molecular Devices Thermomax or Spectromax Plate Reader, agitated to assure thorough mixing of reagents, and incubated at 37° C. The OD405 of each reaction mixture is measured every minute for 1 hour. Control reactions which lack PAI-1; PAI-1 and test compound; t-PA; or t-PA, PAI-1 and test compound were performed in each assay.
# Assay #2 was performed exactly as assay #1 except that a 10 minute preincubation of the test compound and PAI-1 was performed at room temperature prior to the addition of t-PA.
# Assay #3 was performed exactly as assay #1 except that a wide range of concentrations of each test compound, depending upon the potency of the individual compound, was used in the assay.
# Assay #4 was performed exactly as assay #2 except that a wide range of concentrations of each test compound, depending upon the potency of the individual compound, was used in the assay.
# The generated plasmin cleaved the chromogenic substrate, Spectrozyme PL, producing pNA (para-nitroaniline). The pNA was detected spectrophotometrically at 405 nm.
# The degree of inhibition at various concentrations and/or the IC50 value for the compounds provided herein was determined by comparison with control reactions. The IC50 for PAI antagonist activity for each of the compounds specifically disclosed herein has been measured.
# T1 sequence (P05121 24-402): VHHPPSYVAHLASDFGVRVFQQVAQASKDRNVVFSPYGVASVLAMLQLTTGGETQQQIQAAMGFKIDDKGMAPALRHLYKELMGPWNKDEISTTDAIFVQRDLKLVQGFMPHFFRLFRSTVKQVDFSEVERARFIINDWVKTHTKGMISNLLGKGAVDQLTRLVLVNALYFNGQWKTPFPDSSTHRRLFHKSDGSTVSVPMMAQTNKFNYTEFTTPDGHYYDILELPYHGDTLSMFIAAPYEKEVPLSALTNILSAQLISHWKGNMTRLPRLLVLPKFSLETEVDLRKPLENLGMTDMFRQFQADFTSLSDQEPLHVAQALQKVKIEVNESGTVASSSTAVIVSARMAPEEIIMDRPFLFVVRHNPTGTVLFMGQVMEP
row,IC50,SMILES
1,< 50 µM,"O=C(C(=O)c1cc(I)c(O)c(I)c1)c1cc(I)c(O)c(I)c1 [1,2-bis-(4-hydroxy-3,5-diiodophenyl)ethane-1,2-dione]"
2,< 50 µM,"Cc1ccccc1COc1c(I)cc(C(=O)O)cc1I [3,5-diiodo-4-(2-methylbenzyloxy)benzoic acid]"
3,< 10 µM,"O=C(O)c1cc(I)c(OCc2ccc(I)cc2)c(I)c1 [3,5-diiodo-4-(4-iodobenzyloxy)benzoic acid]"
4,< 10 µM,"O=C(O)CCc1cc(I)c(OCc2ccc(I)cc2)c(I)c1 [3-[3,5-diiodo-4-(4-iodobenzyloxy)phenyl]propionic acid]"
5,< 100 µM,"O=C(O)c1cc(I)c(OCc2c(F)cccc2F)c(I)c1 [4-(2,6-difluorobenzyloxy)-3,5-diiodobenzoic acid]"
6,< 50 µM,"O=C(O)CCCCCCCCCCOc1c(I)cc(C(=O)O)cc1I [4-(10-carboxydecyloxy)-3,5-diiodobenzoic acid]"
7,< 100 µM,"O=C(c1ccccc1)c1cc(I)c(O)c(I)c1 [(4-hydroxy-3,5-diiodophenyl)-phenyl-methanone]"
8,< 10 µM,"O=C(c1cc(I)c(O)c(I)c1)c1cc(I)c(OCc2cccc(I)c2)c(I)c1 [[3,5-diiodo-4-(3-iodobenzyloxy)phenyl]-(4-hydroxy-3,5-diiodophenyl)methanone]"
9,< 100 µM,"O=C(O)COc1c(I)cc(C(=O)c2cc(I)c(O)c(I)c2)cc1I [[4-(4-hydroxy-3,5-diiodobenzoyl)-2,6-diiodophenoxy]acetic acid]"
10,< 50 µM,"O=C(c1cc(I)c(O)c(I)c1)c1cc(I)c(O)c(I)c1 [bis(4-hydroxy-3,5-diiodophenyl)methanone]"
